From the supplement of paper PMC10307832

Columns and labels:
Assay in all cases: relative viability (nuclei count vs DMSO), 5 days (fraction); higher = more cells survive
[1] = test system: COR-L 105
Procedure, shortened: (§1)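 Each reported value is a median over duplicate plates. It expresses relative viability: treated-well nuclei count divided by vehicle-well nuclei count. Lung cancer cell lines in 1536-well plates were dosed by pin tool a day after seeding, alone with one drug or with a fixed anchor-drug dose plus five library-drug doses (not always all listed) in √10 steps, and nuclei were counted after 5 days.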

[2] = test system: EKVX
Procedure, shortened: as §1

[3] = test system: EMC-BAC-2
Procedure, shortened: as §1

[4] = test system: H3255
Procedure, shortened: as §1

[5] = test system: LC-2-ad
Procedure, shortened: as §1

[6] = test system: LK-2
Procedure, shortened: as §1

[7] = test system: LXF-289
Procedure, shortened: as §1

[8] = test system: NCI-H1395
Procedure, shortened: as §1

[9] = test system: NCI-H1437
Procedure, shortened: as §1

[10] = test system: NCI-H1651
Procedure, shortened: as §1

[11] = test system: NCI-H1755
Procedure, shortened: as §1

[12] = test system: NCI-H1793
Procedure, shortened: as §1

[13] = test system: NCI-H1915
Procedure, shortened: as §1

[14] = test system: NCI-H1944
Procedure, shortened: as §1

[15] = test system: NCI-H2085
Procedure, shortened: as §1

[16] = test system: NCI-H2087
Procedure, shortened: as §1

[17] = test system: NCI-H2347
Procedure, shortened: as §1

[18] = test system: NCI-H661
Procedure, shortened: as §1

[19] = test system: PC-3 [JPC-3]
Procedure, shortened: as §1

[20] = test system: SK-LU-1
Procedure, shortened: as §1

[21] = test system: SK-MES-1
Procedure, shortened: as §1

For `O=C(O)CCCCC(CCSCc1ccccc1)SCc1ccccc1` (stereo not drawn) [CPI-613] + Nc1ncn([C@H]2C[C@H](O)[C@@H](CO)O2)c(=O)n1 [Decitabine] (partner 2 µM), the relative viability ([1]; first compound 5 µM) was 0.68, the relative viability ([1]; first compound 15.81 µM) was 0.671 and the relative viability ([1]; first compound 50 µM) was 0.668. The relative viability ([1]; first compound 158.11 µM) was 0.375, the relative viability ([1]; first compound 500 µM) was 0.22 and the relative viability ([2]; first compound 5 µM) was 0.29. The relative viability ([2]; first compound 15.81 µM) was 0.348, the relative viability ([2]; first compound 50 µM) was 0.423 and the relative viability ([2]; first compound 500 µM) was 0.397. It also gave a relative viability ([3]; first compound 5 µM) of 0.982, a relative viability ([3]; first compound 15.81 µM) of 0.9 and a relative viability ([3]; first compound 50 µM) of 0.942. For the same compound, the relative viability ([3]; first compound 158.11 µM) was 0.74, the relative viability ([3]; first compound 500 µM) was 0.632 and the relative viability ([4]; first compound 5 µM) was 0.626. The relative viability ([4]; first compound 15.81 µM) was 0.537, the relative viability ([4]; first compound 50 µM) was 0.665 and the relative viability ([4]; first compound 158.11 µM) was 0.566. The relative viability ([4]; first compound 500 µM) was 0.569, the relative viability ([5]; first compound 5 µM) was 0.781 and the relative viability ([5]; first compound 15.81 µM) was 0.859. For the same compound, the relative viability ([5]; first compound 50 µM) was 0.705, the relative viability ([5]; first compound 158.11 µM) was 0.578 and the relative viability ([5]; first compound 500 µM) was 0.0132. For the same compound, the relative viability ([6]; first compound 5 µM) was 0.336, the relative viability ([6]; first compound 15.81 µM) was 0.274 and the relative viability ([6]; first compound 50 µM) was 0.275. It also gave a relative viability ([6]; first compound 158.11 µM) of 0.313, a relative viability ([6]; first compound 500 µM) of 0.283 and a relative viability ([7]; first compound 5 µM) of 0.369. For the same compound, the relative viability ([7]; first compound 15.81 µM) was 0.375, the relative viability ([7]; first compound 50 µM) was 0.365 and the relative viability ([7]; first compound 158.11 µM) was 0.272. For the same compound, the relative viability ([7]; first compound 500 µM) was 0.0864, the relative viability ([8]; first compound 5 µM) was 0.667 and the relative viability ([8]; first compound 15.81 µM) was 0.654. It also gave a relative viability ([8]; first compound 50 µM) of 0.764, a relative viability ([8]; first compound 158.11 µM) of 0.675 and a relative viability ([8]; first compound 500 µM) of 0.597. For the same compound, the relative viability ([9]; first compound 5 µM) was 0.491, the relative viability ([9]; first compound 15.81 µM) was 0.542 and the relative viability ([9]; first compound 50 µM) was 0.567. The relative viability ([9]; first compound 158.11 µM) was 0.207, the relative viability ([9]; first compound 500 µM) was 0.0486 and the relative viability ([10]; first compound 5 µM) was 0.625. It also gave a relative viability ([10]; first compound 15.81 µM) of 0.504, a relative viability ([10]; first compound 50 µM) of 0.661 and a relative viability ([10]; first compound 158.11 µM) of 0.523. It also gave a relative viability ([10]; first compound 500 µM) of 0.562, a relative viability ([11]; first compound 5 µM) of 0.732 and a relative viability ([11]; first compound 15.81 µM) of 0.738. For the same compound, the relative viability ([11]; first compound 50 µM) was 0.67, the relative viability ([11]; first compound 158.11 µM) was 0.699 and the relative viability ([11]; first compound 500 µM) was 0.543. The relative viability ([12]; first compound 5 µM) was 0.468, the relative viability ([12]; first compound 15.81 µM) was 0.51 and the relative viability ([12]; first compound 50 µM) was 0.539. For the same compound, the relative viability ([12]; first compound 158.11 µM) was 0.25, the relative viability ([12]; first compound 500 µM) was 0.108 and the relative viability ([13]; first compound 5 µM) was 0.272. The relative viability ([13]; first compound 15.81 µM) was 0.266, the relative viability ([13]; first compound 50 µM) was 0.256 and the relative viability ([13]; first compound 158.11 µM) was 0.235. It also gave a relative viability ([13]; first compound 500 µM) of 0.114, a relative viability ([14]; first compound 5 µM) of 0.429 and a relative viability ([14]; first compound 15.81 µM) of 0.406. For the same compound, the relative viability ([14]; first compound 50 µM) was 0.395, the relative viability ([14]; first compound 158.11 µM) was 0.277 and the relative viability ([14]; first compound 500 µM) was 0.168. It also gave a relative viability ([15]; first compound 5 µM) of 0.536, a relative viability ([15]; first compound 15.81 µM) of 0.525 and a relative viability ([15]; first compound 50 µM) of 0.568. The relative viability ([15]; first compound 158.11 µM) was 0.437, the relative viability ([15]; first compound 500 µM) was 0.208 and the relative viability ([16]; first compound 5 µM) was 0.261. The relative viability ([16]; first compound 15.81 µM) was 0.218, the relative viability ([16]; first compound 50 µM) was 0.221 and the relative viability ([16]; first compound 158.11 µM) was 0.115. For the same compound, the relative viability ([16]; first compound 500 µM) was 0.0094, the relative viability ([17]; first compound 5 µM) was 0.652 and the relative viability ([17]; first compound 15.81 µM) was 0.553. The relative viability ([17]; first compound 50 µM) was 0.706, the relative viability ([17]; first compound 158.11 µM) was 0.614 and the relative viability ([17]; first compound 500 µM) was 0.347. It also gave a relative viability ([18]; first compound 5 µM) of 0.547, a relative viability ([18]; first compound 15.81 µM) of 0.49 and a relative viability ([18]; first compound 50 µM) of 0.577. The relative viability ([18]; first compound 158.11 µM) was 0.381, the relative viability ([18]; first compound 500 µM) was 0.0993 and the relative viability ([19]; first compound 5 µM) was 0.799. The relative viability ([19]; first compound 50 µM) was 0.879, the relative viability ([19]; first compound 158.11 µM) was 0.716 and the relative viability ([19]; first compound 500 µM) was 0.622. The relative viability ([20]; first compound 5 µM) was 0.693, the relative viability ([20]; first compound 15.81 µM) was 0.527 and the relative viability ([20]; first compound 50 µM) was 0.533. For the same compound, the relative viability ([20]; first compound 158.11 µM) was 0.314, the relative viability ([20]; first compound 500 µM) was 0.0957 and the relative viability ([21]; first compound 5 µM) was 0.422. For the same compound, the relative viability ([21]; first compound 15.81 µM) was 0.367, the relative viability ([21]; first compound 50 µM) was 0.377 and the relative viability ([21]; first compound 158.11 µM) was 0.19. The relative viability ([21]; first compound 500 µM) was 0.103.
